Among the targets are DDR1 (human) (UniProt Q08345); PIK3CA (human) (UniProt P42336); TIE1 (human) (UniProt P35590); HUNK (human) (UniProt P57058); PRPF4B (human) (UniProt Q13523); ROCK1 (human) (UniProt Q13464); OXSR1 (human) (UniProt O95747); PI4KB (human) (UniProt Q9UBF8); SBK1 (human) (UniProt Q52WX2); TBK1 (human) (UniProt Q9UHD2); ICK (human) (UniProt Q9UPZ9); ERN1 (human) (UniProt O75460); IRAK1 (human) (UniProt P51617); HIPK4 (human) (UniProt Q8NE63); DYRK2 (human) (UniProt Q92630); MAK (human) (UniProt P20794); EPHB6 (human) (UniProt O15197); CDKL3 (human) (UniProt Q8IVW4); MATK (human) (UniProt P42679); STK38 (human) (UniProt Q15208); ERBB3 (human) (UniProt P21860); HIPK3 (human) (UniProt Q9H422); CDKL5 (human) (UniProt O76039).

Common to all, as to assay: KINOMEscan competition binding
What all share (settings): compound 10.0 µM

The test system of assay [1] is FLT3 (human), P36888 [K663Q].
Assay [2] relates to PIK3CA (human), P42336 [E545K].
Assay [3] concerns PIK3CA (human), P42336 [E545A].

Sequence of TBK1 (human) (Q9UHD2 whole entry, looked up): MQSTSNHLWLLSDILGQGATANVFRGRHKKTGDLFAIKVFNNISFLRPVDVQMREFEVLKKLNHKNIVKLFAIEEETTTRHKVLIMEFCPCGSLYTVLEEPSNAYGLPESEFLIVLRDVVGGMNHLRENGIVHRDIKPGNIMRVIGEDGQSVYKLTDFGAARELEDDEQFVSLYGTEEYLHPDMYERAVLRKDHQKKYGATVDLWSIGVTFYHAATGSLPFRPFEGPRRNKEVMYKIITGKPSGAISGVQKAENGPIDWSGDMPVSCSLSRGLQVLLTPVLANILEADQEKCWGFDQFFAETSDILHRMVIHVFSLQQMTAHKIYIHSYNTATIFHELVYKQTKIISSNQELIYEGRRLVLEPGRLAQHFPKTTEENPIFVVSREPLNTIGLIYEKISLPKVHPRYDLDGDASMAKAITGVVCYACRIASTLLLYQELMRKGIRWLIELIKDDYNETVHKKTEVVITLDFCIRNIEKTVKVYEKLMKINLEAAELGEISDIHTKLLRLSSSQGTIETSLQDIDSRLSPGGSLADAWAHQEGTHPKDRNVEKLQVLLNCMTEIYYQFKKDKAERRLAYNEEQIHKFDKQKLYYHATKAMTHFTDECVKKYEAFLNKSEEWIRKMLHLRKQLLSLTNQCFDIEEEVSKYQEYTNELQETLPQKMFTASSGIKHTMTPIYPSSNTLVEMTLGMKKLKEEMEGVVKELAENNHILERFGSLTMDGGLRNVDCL
Sequence of ICK (human) (Q9UPZ9 whole entry, looked up): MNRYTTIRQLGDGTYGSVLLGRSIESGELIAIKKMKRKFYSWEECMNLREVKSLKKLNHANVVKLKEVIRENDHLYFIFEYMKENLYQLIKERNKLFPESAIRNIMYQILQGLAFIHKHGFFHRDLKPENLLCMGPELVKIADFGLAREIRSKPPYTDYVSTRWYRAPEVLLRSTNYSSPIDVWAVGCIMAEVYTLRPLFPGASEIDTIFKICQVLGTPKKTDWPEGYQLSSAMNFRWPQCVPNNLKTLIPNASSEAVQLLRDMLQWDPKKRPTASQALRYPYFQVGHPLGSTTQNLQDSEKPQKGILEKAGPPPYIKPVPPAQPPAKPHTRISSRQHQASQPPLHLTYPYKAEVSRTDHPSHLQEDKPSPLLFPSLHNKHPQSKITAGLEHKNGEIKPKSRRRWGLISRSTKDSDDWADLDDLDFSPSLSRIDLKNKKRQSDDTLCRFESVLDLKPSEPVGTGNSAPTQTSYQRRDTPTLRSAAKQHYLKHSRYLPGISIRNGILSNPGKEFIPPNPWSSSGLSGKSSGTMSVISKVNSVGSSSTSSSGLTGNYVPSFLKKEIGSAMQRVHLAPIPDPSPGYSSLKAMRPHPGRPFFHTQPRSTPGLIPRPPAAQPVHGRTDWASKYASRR
Sequence of HIPK3 (human) (Q9H422 whole entry, looked up): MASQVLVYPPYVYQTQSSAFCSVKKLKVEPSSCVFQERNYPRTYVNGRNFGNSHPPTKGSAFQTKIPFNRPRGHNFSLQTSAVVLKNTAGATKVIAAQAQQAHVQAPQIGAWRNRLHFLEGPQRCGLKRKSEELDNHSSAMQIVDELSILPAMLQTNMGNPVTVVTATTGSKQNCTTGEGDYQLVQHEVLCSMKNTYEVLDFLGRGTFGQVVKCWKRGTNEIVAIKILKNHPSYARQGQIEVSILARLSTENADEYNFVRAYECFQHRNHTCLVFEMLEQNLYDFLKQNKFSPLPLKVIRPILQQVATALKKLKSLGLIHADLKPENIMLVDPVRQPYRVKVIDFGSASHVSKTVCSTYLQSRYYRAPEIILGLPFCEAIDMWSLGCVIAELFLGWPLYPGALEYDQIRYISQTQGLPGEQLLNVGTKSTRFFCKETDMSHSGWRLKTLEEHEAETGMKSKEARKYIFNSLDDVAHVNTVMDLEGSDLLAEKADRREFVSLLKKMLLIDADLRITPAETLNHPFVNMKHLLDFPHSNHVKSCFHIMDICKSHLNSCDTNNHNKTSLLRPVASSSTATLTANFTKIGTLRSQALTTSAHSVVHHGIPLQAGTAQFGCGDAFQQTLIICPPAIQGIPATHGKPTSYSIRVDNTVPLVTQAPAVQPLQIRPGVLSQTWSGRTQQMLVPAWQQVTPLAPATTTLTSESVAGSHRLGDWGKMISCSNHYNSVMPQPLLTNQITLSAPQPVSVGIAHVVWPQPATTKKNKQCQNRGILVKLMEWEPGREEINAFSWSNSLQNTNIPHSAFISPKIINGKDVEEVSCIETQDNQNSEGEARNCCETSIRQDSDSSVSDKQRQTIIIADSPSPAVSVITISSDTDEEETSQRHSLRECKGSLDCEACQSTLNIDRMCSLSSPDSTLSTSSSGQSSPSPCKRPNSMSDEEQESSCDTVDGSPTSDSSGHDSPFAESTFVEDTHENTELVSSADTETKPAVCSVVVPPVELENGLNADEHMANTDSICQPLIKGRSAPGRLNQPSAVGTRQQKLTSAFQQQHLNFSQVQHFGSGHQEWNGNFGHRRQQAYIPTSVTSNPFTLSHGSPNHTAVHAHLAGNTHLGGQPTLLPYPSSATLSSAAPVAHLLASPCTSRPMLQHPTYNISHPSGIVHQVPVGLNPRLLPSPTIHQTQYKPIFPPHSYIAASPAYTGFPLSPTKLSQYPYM
Sequence of ERN1 (human) (O75460 whole entry, looked up): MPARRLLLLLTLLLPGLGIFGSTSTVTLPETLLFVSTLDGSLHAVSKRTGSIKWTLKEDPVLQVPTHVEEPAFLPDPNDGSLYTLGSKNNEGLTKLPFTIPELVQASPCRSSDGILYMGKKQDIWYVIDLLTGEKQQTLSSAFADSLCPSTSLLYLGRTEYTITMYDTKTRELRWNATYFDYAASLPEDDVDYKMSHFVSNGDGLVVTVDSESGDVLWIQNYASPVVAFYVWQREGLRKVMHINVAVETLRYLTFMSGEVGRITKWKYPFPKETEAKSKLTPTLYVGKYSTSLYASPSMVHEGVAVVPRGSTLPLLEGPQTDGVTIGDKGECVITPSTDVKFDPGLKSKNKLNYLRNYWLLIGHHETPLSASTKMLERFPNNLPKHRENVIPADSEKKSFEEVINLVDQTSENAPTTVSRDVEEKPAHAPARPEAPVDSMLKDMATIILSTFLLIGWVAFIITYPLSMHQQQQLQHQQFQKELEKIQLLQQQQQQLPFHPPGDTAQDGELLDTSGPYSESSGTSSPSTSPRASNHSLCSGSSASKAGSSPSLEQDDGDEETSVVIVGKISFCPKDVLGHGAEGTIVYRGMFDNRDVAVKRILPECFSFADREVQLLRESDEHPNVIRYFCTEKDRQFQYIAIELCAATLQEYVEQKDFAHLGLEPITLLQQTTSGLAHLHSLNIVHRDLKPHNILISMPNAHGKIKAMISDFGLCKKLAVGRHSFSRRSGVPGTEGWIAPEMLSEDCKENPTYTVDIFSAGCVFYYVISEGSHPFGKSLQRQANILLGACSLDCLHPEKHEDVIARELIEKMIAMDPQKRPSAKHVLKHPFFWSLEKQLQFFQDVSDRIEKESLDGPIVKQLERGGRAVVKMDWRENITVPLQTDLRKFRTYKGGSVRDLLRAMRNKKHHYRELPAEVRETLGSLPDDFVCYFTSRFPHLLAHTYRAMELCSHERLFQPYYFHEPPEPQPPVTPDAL
Sequence of CDKL3 (human) (Q8IVW4 whole entry, looked up): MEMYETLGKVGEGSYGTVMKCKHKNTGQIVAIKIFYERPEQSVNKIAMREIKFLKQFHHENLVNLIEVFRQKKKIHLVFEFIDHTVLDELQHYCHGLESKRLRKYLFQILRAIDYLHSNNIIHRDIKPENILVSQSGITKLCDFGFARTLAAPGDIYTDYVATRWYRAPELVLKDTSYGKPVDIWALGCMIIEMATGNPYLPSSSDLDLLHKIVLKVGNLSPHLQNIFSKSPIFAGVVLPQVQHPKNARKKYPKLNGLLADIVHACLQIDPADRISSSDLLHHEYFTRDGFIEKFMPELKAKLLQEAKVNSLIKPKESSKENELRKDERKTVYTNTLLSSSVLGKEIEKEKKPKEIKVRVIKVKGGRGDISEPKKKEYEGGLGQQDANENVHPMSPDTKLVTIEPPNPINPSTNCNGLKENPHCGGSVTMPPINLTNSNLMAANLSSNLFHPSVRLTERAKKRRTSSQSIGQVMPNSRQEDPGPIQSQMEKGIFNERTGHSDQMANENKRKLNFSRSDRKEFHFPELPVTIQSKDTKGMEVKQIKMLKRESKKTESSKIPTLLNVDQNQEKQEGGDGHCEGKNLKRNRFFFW
Sequence of IRAK1 (human) (P51617 whole entry, looked up): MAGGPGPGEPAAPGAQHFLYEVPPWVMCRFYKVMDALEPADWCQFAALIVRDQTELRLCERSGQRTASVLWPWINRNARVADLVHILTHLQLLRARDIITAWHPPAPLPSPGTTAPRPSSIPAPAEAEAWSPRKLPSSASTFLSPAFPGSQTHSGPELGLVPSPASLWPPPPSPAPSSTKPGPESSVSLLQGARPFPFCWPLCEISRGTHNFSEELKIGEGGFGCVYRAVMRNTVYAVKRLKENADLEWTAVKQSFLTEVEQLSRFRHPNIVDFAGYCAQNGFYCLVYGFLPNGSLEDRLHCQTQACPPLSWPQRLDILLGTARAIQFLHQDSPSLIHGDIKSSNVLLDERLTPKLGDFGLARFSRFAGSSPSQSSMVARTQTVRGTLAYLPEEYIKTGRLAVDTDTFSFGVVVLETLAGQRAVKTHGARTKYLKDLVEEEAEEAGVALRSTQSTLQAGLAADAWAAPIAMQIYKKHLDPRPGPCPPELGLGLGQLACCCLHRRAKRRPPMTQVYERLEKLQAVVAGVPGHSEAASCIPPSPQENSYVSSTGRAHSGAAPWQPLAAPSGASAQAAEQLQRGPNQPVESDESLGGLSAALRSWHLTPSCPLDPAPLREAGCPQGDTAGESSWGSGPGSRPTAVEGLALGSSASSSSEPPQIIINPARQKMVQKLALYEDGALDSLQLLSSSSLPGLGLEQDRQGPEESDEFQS

For the molecule `COc1cc(C(=O)NC2CCN(C)CC2)ccc1Nc1ncc2c(n1)N(C1CCCC1)C(C)CC(=O)N2C` (configuration not stated), the kinase still bound, per cent of control (on DDR1 (human); in [1]; at PIK3CA (human); in assay [2]; on TIE1 (human)) was 100% in each case.
As for `CC[C@@H]1C(=O)N(C)c2cnc(Nc3ccc(C(=O)NC4CCN(C)CC4)cc3OC)nc2N1C1CCCC1`, the kinase still bound, per cent of control (at DDR1 (human); in [1]; on PIK3CA (human); in [2]; at TIE1 (human)) was 100% throughout.
As for `Cc1ccc(C(=O)Nc2cccc(C(F)(F)F)c2)cc1Nc1cncc(C(N)=O)c1`, the kinase still bound, per cent of control worked out at 0.1% at DDR1 (human); 100% in assay [1]; 100% on PIK3CA (human); 100% in [2]; 100% at TIE1 (human).
Regarding `OCCCNc1cc(-c2ccnc(Nc3cccc(Cl)c3)n2)ccn1`, the kinase still bound, per cent of control on HUNK (human), on PRPF4B (human), at ROCK1 (human), at DDR1 (human), on OXSR1 (human) and on PI4KB (human) was 100% in each case. Further, the kinase still bound, per cent of control in assay [3] turned out to be 100%; at SBK1 (human) it was 100%; at TBK1 (human), 100%; on ICK (human) it was 2.2%; at ERN1 (human), 100%; at IRAK1 (human), 100%. In addition, the kinase still bound, per cent of control on HIPK4 (human) is 14%; in assay [1] it was 100%; at DYRK2 (human) it was 100%; on PIK3CA (human), 100%; in assay [2], 100%; at TIE1 (human), 100%. The kinase still bound, per cent of control on MAK (human) was 4.6%; at EPHB6 (human), 100%; on CDKL3 (human), 5.4%; at MATK (human), 100%; at STK38 (human) it was 100%; on ERBB3 (human), 100%. In addition, the kinase still bound, per cent of control came out at 100% on HIPK3 (human) and 9.4% on CDKL5 (human).
With `Cn1c(=O)n(-c2ccc(C(C)(C)C#N)cc2)c2c3cc(-c4cnc5ccccc5c4)ccc3ncc21`, the kinase still bound, per cent of control at HUNK (human), at PRPF4B (human), at ROCK1 (human), on DDR1 (human), on OXSR1 (human) and on PI4KB (human) was 100% each time. Further, the kinase still bound, per cent of control on SBK1 (human), at TBK1 (human), at ICK (human), on ERN1 (human), on IRAK1 (human) and at HIPK4 (human) was 100% in each case. Moreover, the kinase still bound, per cent of control amounted to 100% in [1]; 100% at DYRK2 (human); 2.8% at PIK3CA (human); 3% in assay [2]; 100% on TIE1 (human); 100% on MAK (human). Moreover, the kinase still bound, per cent of control at EPHB6 (human), at CDKL3 (human), at MATK (human), at STK38 (human), on ERBB3 (human) and on HIPK3 (human) was 100% throughout. This molecule had a kinase still bound, per cent of control at CDKL5 (human) of 100%.
As to `C=CC(=O)Nc1cccc(Oc2nc(Nc3ccc(N4CCN(C)CC4)cc3OC)ncc2Cl)c1`, the kinase still bound, per cent of control was determined as 100% at DDR1 (human); 1.1% in assay [1]; 100% on PIK3CA (human); 100% in assay [2]; 100% at TIE1 (human).
For `COc1cc(C(=O)NC2CCN(C)CC2)ccc1Nc1ncc2c(n1)N(C1CCCC1)CCC(=O)N2C(C)C`, the kinase still bound, per cent of control on HUNK (human), at PRPF4B (human), at ROCK1 (human), on DDR1 (human), on OXSR1 (human) and at PI4KB (human) was 100% each time. The kinase still bound, per cent of control (in assay [3]; at SBK1 (human); at TBK1 (human); at ICK (human); at ERN1 (human); on IRAK1 (human)) was 100% in each case. For the same molecule, the kinase still bound, per cent of control (at HIPK4 (human); in assay [1]; on DYRK2 (human); at PIK3CA (human); in assay [2]; at TIE1 (human)) was 100% throughout. Also, the kinase still bound, per cent of control on MAK (human), at EPHB6 (human), at CDKL3 (human), on MATK (human), at STK38 (human) and on ERBB3 (human) was 100% in each case. The kinase still bound, per cent of control at HIPK3 (human) and at CDKL5 (human) was 100% throughout.
